Columns and labels:
Adenosine receptor A1 = biological target: T1, Adenosine receptor A1 (Homo sapiens, UniProt P30542); experiment: Displacement of [3H]DPCPX from human adenosine A1 receptor expressed in CHO-K1 cell membrane preincubated for 5 mins followed measured after 50 mins by radioligand competition binding assay; type: cell membranes
T1 sequence (P30542 whole entry): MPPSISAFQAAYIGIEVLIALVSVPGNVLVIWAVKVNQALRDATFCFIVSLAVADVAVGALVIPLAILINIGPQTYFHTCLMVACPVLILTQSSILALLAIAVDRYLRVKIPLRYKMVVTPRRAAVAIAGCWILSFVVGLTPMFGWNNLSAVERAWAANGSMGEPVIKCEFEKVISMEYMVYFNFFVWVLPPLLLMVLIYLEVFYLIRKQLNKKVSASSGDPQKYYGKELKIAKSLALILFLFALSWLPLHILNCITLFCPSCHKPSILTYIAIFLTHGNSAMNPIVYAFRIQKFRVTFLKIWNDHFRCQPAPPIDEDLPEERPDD

Adenosine receptor A2a = Adenosine receptor A2a (Homo sapiens, UniProt P29274); experiment: Displacement of [3H]-ZM241385 from human recombinant A2A receptor expressed in human HEK293 cell membrane preincubated for 5 mins and measured after 1.5 hrs by radioligand competition binding assay; type: cell membranes
Adenosine receptor A2a, sequence (P29274 whole entry): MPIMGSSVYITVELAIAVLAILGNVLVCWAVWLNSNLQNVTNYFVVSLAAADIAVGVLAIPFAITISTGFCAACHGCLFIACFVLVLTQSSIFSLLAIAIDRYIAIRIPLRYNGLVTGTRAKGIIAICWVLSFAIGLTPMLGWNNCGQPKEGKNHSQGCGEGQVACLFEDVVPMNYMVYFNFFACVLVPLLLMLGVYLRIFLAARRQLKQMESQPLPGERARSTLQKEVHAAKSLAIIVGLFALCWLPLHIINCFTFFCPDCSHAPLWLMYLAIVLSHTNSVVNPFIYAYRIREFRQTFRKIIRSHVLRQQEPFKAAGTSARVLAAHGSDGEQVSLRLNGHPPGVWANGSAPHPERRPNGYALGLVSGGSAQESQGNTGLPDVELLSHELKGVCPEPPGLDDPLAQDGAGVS

Structure (SMILES): Cc1ccc(-c2cn3c(nc4ccccc43)c(N)n2)cc1
- IC50 (Adenosine receptor A1): 63.9 nM
- IC50 (Adenosine receptor A2a): 14.4 nM

Structure (SMILES): COc1cccc(-c2cn3c(nc4ccccc43)c(N)n2)c1
- IC50 (Adenosine receptor A1): 95.8 nM
- IC50 (Adenosine receptor A2a): 10.1 nM

Structure (SMILES): N#Cc1ccc(-c2cn3c(nc4ccccc43)c(N)n2)cc1
- IC50 (Adenosine receptor A2a): 74.4 nM

Structure (SMILES): Nc1nc(C2CCN(CC(=O)N3CCOCC3)CC2)cn2c1nc1ccccc12
- IC50 (Adenosine receptor A2a): > 10000 nM

Structure (SMILES): Nc1nc(Cc2ccccc2)cn2c1nc1ccccc12
- IC50 (Adenosine receptor A1): 733 nM

Structure (SMILES): COc1ccccc1-c1cn2c(nc3ccccc32)c(N)n1
- IC50 (Adenosine receptor A2a): 83.1 nM

Structure (SMILES): Cc1c(-c2ccccc2)nc(N)c2nc3ccccc3n12
- IC50 (Adenosine receptor A2a): 114 nM

Structure (SMILES): Nc1nc(-c2ccccc2)cn2c1nc1ccccc12
- IC50 (Adenosine receptor A2a): 46.5 nM

Structure (SMILES): Nc1nc(-c2ccc([N+](=O)[O-])cc2)cn2c1nc1ccccc12
- IC50 (Adenosine receptor A2a): 71.9 nM

Structure (SMILES): Nc1nc(-c2cccc(Br)c2)cn2c1nc1ccccc12
- IC50 (Adenosine receptor A1): 92.1 nM

Structure (SMILES): Nc1nc(-c2ccc(C(F)(F)F)cc2)cn2c1nc1ccccc12
- IC50 (Adenosine receptor A2a): 26.5 nM

Structure (SMILES): Nc1nc(CO)cn2c1nc1ccccc12
- IC50 (Adenosine receptor A2a): 149 nM

Structure (SMILES): CC(=O)Nc1cccc(-c2cn3c(nc4ccccc43)c(N)n2)c1
- IC50 (Adenosine receptor A1): 17 nM
- IC50 (Adenosine receptor A2a): 48.6 nM

Structure (SMILES): Nc1nc(C2CCNCC2)cn2c1nc1ccccc12
- IC50 (Adenosine receptor A2a): > 10000 nM

Structure (SMILES): Nc1nc(-c2ccc(Cl)cc2)cn2c1nc1ccccc12
- IC50 (Adenosine receptor A2a): 35.4 nM

Structure (SMILES): Nc1nc(-c2ccc(Br)cc2)cn2c1nc1ccccc12
- IC50 (Adenosine receptor A2a): 38.4 nM

Structure (SMILES): COc1cccc(-c2cn3c(nc4cc(F)c(F)cc43)c(N)n2)c1
- IC50 (Adenosine receptor A1): 460 nM

Structure (SMILES): Nc1nc(-c2ccc(OC(F)(F)F)cc2)cn2c1nc1ccccc12
- IC50 (Adenosine receptor A2a): 131 nM

Structure (SMILES): COCCN1CCC(c2cn3c(nc4ccccc43)c(N)n2)CC1
- IC50 (Adenosine receptor A2a): > 10000 nM

Structure (SMILES): Nc1nc(-c2ccco2)cn2c1nc1ccccc12
- IC50 (Adenosine receptor A1): 6.3 nM
- IC50 (Adenosine receptor A2a): 32.6 nM

Structure (SMILES): CC(=O)Nc1ccc(-c2cn3c(nc4ccccc43)c(N)n2)cc1
- IC50 (Adenosine receptor A2a): 312 nM

Structure (SMILES): CC(C)(C)c1ccc(-c2cn3c(nc4ccccc43)c(N)n2)cc1
- IC50 (Adenosine receptor A2a): 33 nM

Structure (SMILES): Nc1nc(-c2ccc(F)cc2F)cn2c1nc1ccccc12
- IC50 (Adenosine receptor A1): 4.4 nM
- IC50 (Adenosine receptor A2a): 33.7 nM

Structure (SMILES): COc1ccc(-c2cn3c(nc4ccccc43)c(N)n2)cc1
- IC50 (Adenosine receptor A2a): 51.2 nM

Structure (SMILES): Nc1nc(-c2ccc(O)cc2)cn2c1nc1ccccc12
- IC50 (Adenosine receptor A2a): 81.3 nM
